According to patent US9783586B2, “Inhibitors of the linear ubiquitin chain assembly complex (LUBAC) and related methods” (The United States of America, as represented by the …, priority 2013, dated 2017):
“Also recorded” adds a separate entry of the source. Positions of bridges follow the written chain, without caps; N, C: chain ends. Non-standard residues stand in square brackets, D forms with d. Residues, ends and D or L forms follow the SMILES beside them. No end group written: not given here. S5 = C=CCCC[C@](C)(N)C(=O)O; βAla = NCCC(=O)O

Columns and labels:
Format in all cases: cell-based
ABC DLBCL cell lines = assay: MTS cell viability assay, ABC DLBCL
Description: (§1) ABC and GCB DLBCL cell lines were treated with RNF31 stapled peptides of Table 2 at concentrations of 5 μM or 20 μM for four days. Cell viability was determined using the following MTS assay. Cells were plated in triplicate at a density of 15,000 cells per well in 96-well plates. Cell viability after indicated treatments was assayed by adding 3-(4,5-dimethylthiazol-2-yl)-5-(3-carboxymethoxyphenyl)-2-(4-sulphophenyl)-2H tetrazolium and an electron coupling reagent (phenazine methosulphate from Promega, Madison, Wis.), incubated for 3 hours and measured by the amount of 490 nm absorbance using a 96-well plate reader. The background was subtracted using a media only control. The results of these MTS assays done in triplicate are shown in FIGS. 7A-7D (error bars indicate the SEM), and cell viability is expressed as the fraction of cells remaining after four days treatment, relative to the initial number of cells at the start of treatment (time 0). The results of MTS cell viability assay indicate that amino-terminal cross-linked peptides RNF31-N (SEQ ID NO: 11) and RNF31-NC (SEQ ID NO: 12) were toxic to ABC DLBCL cell lines but had little effect on GCB DLBCL cell lines tested.

IκBα = assay: IκBα-luciferase reporter assay; conditions: ABC DLBCL cells, Example 10 (FIG. 8B)
Source text: In a second experiment, HBL1 and TMD8 ABC DLBCL lines were engineered to contain an NF-κB-driven luciferase reporter. Vectors expressing an IκBα-luciferase fusion protein were constructed using Photinus luciferase from pGL3 vector (Promega, Madison, Wis.) as the reporter and Renilla luciferase construct from phRL-TK (Promega) was used for normalization. Stable clones were identified that were responsive to […] (see Lam et al, Clin Cancer Res, 11: 28-40 (2005)). After development with the DUAL-GLO luciferase assay system (Promega), the ratio of IκBα-Photinus to Renilla luminescence was normalized to that in untreated or uninduced cultures. The IκBα assay, which relies on the correlation between NF-κB activity and IKKβ kinase activity, was previously described in Lenz et al, Science, 319: 1676-1679 (2008). In brief, IKKβ kinase phosphorylates IκBα, which leads to degradation of IκBα (an inhibitor of NF-κB) and thereby activates NF-κB.
The engineered cells were transfected with control (SC4) or RNF31 shRNAs under the control of a doxycyline promoter as described in Example 2. Expression of shRNA was induced with doxycyline, and relative amounts of NF-κB Luciferase reporter activity was measured and normalized relative to control (SC4) shRNA. As additional controls, the expression of NF-κB Luciferase reporter activity was measured in cells that were not expressing shRNAs and which were either treated with the specific IKKβ inhibitor (“MLM-120B”) or untreated (“No Rx”). Experiments were done in triplicate and the results are shown in FIG. 2B (error bars indicate standard error of the mean (SEM)).

NF-κB = NF-κB luciferase reporter assay; conditions: for NF-κB activity: ABC DLBCL cells, Example 10 (FIG. 8A); for Relative NF-κB-luciferase reporter activity: HBL1 ABC DLBCL cells, 5 μM or 20 μM, 2 days, relative to DMSO (FIG. 4)
Description: A third experiment was done using a different reporter system for NF-κB activity. HBL1 and TMD8 ABC DLBCL lines cell lines were created with an NF-κB transcriptional reporter by transduction with lentiviral particles containing an inducible NF-κB-responsive luciferase reporter construct (SA Biosciences, Valencia, Calif.) and selected with puromycin. Luciferase activity was measured using the DUAL-LUCIFERASE™ Reporter Assay System (Promega) on a Microtiter Plate Luminometer (Dyn-Ex Technologies, Chantilly, Va.). The transduced HBL and TMD8 cell lines were then transfected with constructs that inducibly express control (SC4) or RNF31 shRNAs described above. Expression of shRNAs was induced using doxycyline, and the luciferase reporter activity in shRNF31 expression cells was measured and normalized relative to control (SC4). Cells were also treated with the specific IKKβ inhibitor (MLN120B) as a positive control. Experiments were done in triplicate, and results are shown in FIG. 2C (error bars indicate SEM).
The ability of these peptides to inhibit NF-κB activity in ABC DLBCL was determined using the NF-κB luciferase reporter assay described above. Negative control cells were treated with dimethyl sulfoxide (DMSO), and positive control cells were treated with Bruton's tyrosine kinase (Btk) inhibitor ibrutinib. […] Cells were treated with peptides at concentrations of 5 μM or 20 μM for 2 days. Relative NF-κB-luciferase reporter activity was normalized and measured relative to control (DMSO-treated) cells. The results of triplicate experiments are shown in FIG. 4 (error bars indicate the SEM).

GCB DLBCL cell lines = assay: MTS cell viability assay, GCB DLBCL; conditions: 5 μM or 20 μM, four days (FIGS. 7A-7D)
Description: as §1

RBCK1/RNF31 interaction = molecular target: T1, RBCK1/RNF31 interaction (Homo sapiens, UniProt Q9BYM8); assay: RBCK1/RNF31 co-immunoprecipitation (LUBAC complex formation) in co-transfected HEK-293 cells; conditions: for RBCK1/RNF31 interaction (anti-HA immunoprecipitation, densitometry): HEK-293 cells, 5 μM or 20 μM, 24 hours, relative to DMSO (FIGS. 5, 6)
T1 construct: expressed in transfected cells; host or cells: HEK-293
T1 sequence (Q9BYM8 1-510): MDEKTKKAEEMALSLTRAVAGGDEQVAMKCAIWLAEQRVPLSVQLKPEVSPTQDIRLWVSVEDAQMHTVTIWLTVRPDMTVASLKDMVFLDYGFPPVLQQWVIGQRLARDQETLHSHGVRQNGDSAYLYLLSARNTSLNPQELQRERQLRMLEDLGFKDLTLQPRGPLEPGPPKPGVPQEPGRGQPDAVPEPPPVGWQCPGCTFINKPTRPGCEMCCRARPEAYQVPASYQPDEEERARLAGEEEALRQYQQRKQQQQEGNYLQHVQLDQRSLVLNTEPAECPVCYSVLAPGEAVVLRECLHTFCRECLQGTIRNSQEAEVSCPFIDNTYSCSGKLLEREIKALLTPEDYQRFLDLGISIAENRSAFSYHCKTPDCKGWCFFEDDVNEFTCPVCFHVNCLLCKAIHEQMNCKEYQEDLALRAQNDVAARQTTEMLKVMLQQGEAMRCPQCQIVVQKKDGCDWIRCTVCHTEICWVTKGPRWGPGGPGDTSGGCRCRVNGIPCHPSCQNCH

[1] = ABC DLBCL cells, Example 10 (FIG. 8C)

Compound	Cell viability (MTS) (ABC DLBCL cell lines; [1])	IκBα activity (IκBα-reporter) (IκBα)	NF-κB activity (NF-κB)	Cell viability (MTS) (ABC DLBCL cell lines; ABC DLBCL cell lines, 5 μM or 20 μM, four days (FIGS. 7A-7D))	Relative NF-κB-luciferase reporter activity (NF-κB)	Cell viability (MTS) (GCB DLBCL cell lines)	RBCK1/RNF31 interaction (anti-HA immunoprecipitation, densitometry) (RBCK1/RNF31 interaction)	Interference with LUBAC function (RBCK1/RNF31 interaction; Example 9, tested as described in Example 7 (present tense))
SRALTELQRQRLEPFRQRLWDSG [SEQ ID NO:1]	little or no effect	little or no effect	little or no effect	–	–	–	–	–
Ac-βAla Ser Arg Xaa Leu Thr Glu Xaa Gln Arg Gln Arg Leu Glu Pro Phe Arg Gln Arg Xaa Trp Asp Ser Xaa-NH2 (Ac-[βAla]SR[S5]LTE[S5]QRQRLEPFRQR[S5]WDS[S5]-NH2; staple 20-24, 4-8; SMILES CC(=O)NCCC(=O)N[C@@H](CO)C(=O)N[C@@H](CCCNC(=N)N)C(=O)N[C@@]1(C)CCCC=CCCC[C@@](C)(C(=O)N[C@@H](CCC(N)=O)C(=O)N[C@@H](CCCNC(=N)N)C(=O)N[C@@H](CCC(N)=O)C(=O)N[C@@H](CCCNC(=N)N)C(=O)N[C@@H](CC(C)C)C(=O)N[C@@H](CCC(=O)O)C(=O)N2CCC[C@H]2C(=O)N[C@@H](Cc2ccccc2)C(=O)N[C@@H](CCCNC(=N)N)C(=O)N[C@@H](CCC(N)=O)C(=O)N[C@@H](CCCNC(=N)N)C(=O)N[C@@]2(C)CCCC=CCCC[C@@](C)(C(N)=O)NC(=O)[C@H](CO)NC(=O)[C@H](CC(=O)O)NC(=O)[C@H](Cc3c[nH]c4ccccc34)NC2=O)NC(=O)[C@H](CCC(=O)O)NC(=O)[C@H]([C@@H](C)O)NC(=O)[C@H](CC(C)C)NC1=O) [RNF31-NC]	–	–	–	toxic	strongly inhibit NF-κB	little effect	inhibited RBCK1/RNF31 interaction in a dose-dependent fashion	–
Ac-βAla Ser Arg Ala Leu Thr Glu Leu Gln Arg Gln Arg Leu Glu Pro Phe Arg Gln Arg Leu Trp Asp Ser-NH2 (Ac-[βAla]SRALTELQRQRLEPFRQRLWDS-NH2; SMILES CC(=O)NCCC(=O)N[C@@H](CO)C(=O)N[C@@H](CCCNC(=N)N)C(=O)N[C@@H](C)C(=O)N[C@@H](CC(C)C)C(=O)N[C@H](C(=O)N[C@@H](CCC(=O)O)C(=O)N[C@@H](CC(C)C)C(=O)N[C@@H](CCC(N)=O)C(=O)N[C@@H](CCCNC(=N)N)C(=O)N[C@@H](CCC(N)=O)C(=O)N[C@@H](CCCNC(=N)N)C(=O)N[C@@H](CC(C)C)C(=O)N[C@@H](CCC(=O)O)C(=O)N1CCC[C@H]1C(=O)N[C@@H](Cc1ccccc1)C(=O)N[C@@H](CCCNC(=N)N)C(=O)N[C@@H](CCC(N)=O)C(=O)N[C@@H](CCCNC(=N)N)C(=O)N[C@@H](CC(C)C)C(=O)N[C@@H](Cc1c[nH]c2ccccc12)C(=O)N[C@@H](CC(=O)O)C(=O)N[C@@H](CO)C(N)=O)[C@@H](C)O) [RNF31-wt]	decreased cell viability	decreased IκBα activity	inhibited NF-κB activity	–	less of an effect	–	little if any effect	–
Ac-βAla Ser Arg Ala Leu Thr Glu Leu Gln Arg Gln Arg Leu Glu Pro Phe Arg Gln Arg Xaa Trp Asp Ser Xaa-NH2 (Ac-[βAla]SRALTELQRQRLEPFRQR[S5]WDS[S5]-NH2; staple 20-24; SMILES CC(=O)NCCC(=O)N[C@@H](CO)C(=O)N[C@@H](CCCNC(=N)N)C(=O)N[C@@H](C)C(=O)N[C@@H](CC(C)C)C(=O)N[C@H](C(=O)N[C@@H](CCC(=O)O)C(=O)N[C@@H](CC(C)C)C(=O)N[C@@H](CCC(N)=O)C(=O)N[C@@H](CCCNC(=N)N)C(=O)N[C@@H](CCC(N)=O)C(=O)N[C@@H](CCCNC(=N)N)C(=O)N[C@@H](CC(C)C)C(=O)N[C@@H](CCC(=O)O)C(=O)N1CCC[C@H]1C(=O)N[C@@H](Cc1ccccc1)C(=O)N[C@@H](CCCNC(=N)N)C(=O)N[C@@H](CCC(N)=O)C(=O)N[C@@H](CCCNC(=N)N)C(=O)N[C@@]1(C)CCCC=CCCC[C@@](C)(C(N)=O)NC(=O)[C@H](CO)NC(=O)[C@H](CC(=O)O)NC(=O)[C@H](Cc2c[nH]c3ccccc23)NC1=O)[C@@H](C)O) [RNF31-C]	–	–	–	–	less of an effect	–	little if any effect	–
CC(=O)NCCC(=O)N[C@@H](CO)C(=O)N[C@@H](CCCNC(=N)N)C(=O)N[C@@]1(C)CCCC=CCCC[C@@](C)(C(=O)N[C@@H](CCC(N)=O)C(=O)N[C@@H](CCCNC(=N)N)C(=O)N[C@@H](CCC(N)=O)C(=O)N[C@@H](CCCNC(=N)N)C(=O)N[C@@H](CC(C)C)C(=O)N[C@@H](CCC(=O)O)C(=O)N2CCC[C@H]2C(=O)N[C@@H](Cc2ccccc2)C(=O)N[C@@H](CCCNC(=N)N)C(=O)N[C@@H](CC(C)C)C(=O)N[C@@H](CCCNC(=N)N)C(=O)N[C@@]2(C)CCCC=CCCC[C@@](C)(C(N)=O)NC(=O)[C@H](CO)NC(=O)[C@H](CC(=O)O)NC(=O)[C@H](Cc3c[nH]c4ccccc34)NC2=O)NC(=O)[C@H](CCC(=O)O)NC(=O)[C@H]([C@@H](C)O)NC(=O)[C@H](CC(C)C)NC1=O [RNF31-NC Q2L, Ac-βAla Ser Arg Xaa Leu Thr Glu Xaa Gln Arg Gln Arg Leu Glu Pro Phe Arg Leu Arg Xaa Trp Asp Ser Xaa-NH2] (Ac-[βAla]SR[S5]LTE[S5]QRQRLEPFRLR[S5]WDS[S5]-NH2; staple 4-8, 20-24)	decreased cell viability; also recorded: greatest activity	decreased IκBα activity; also recorded: greatest activity	inhibited NF-κB activity; also recorded: greatest activity	–	–	–	–	interfere with LUBAC function
